These results are taken from ChEMBL document CHEMBL5291721, “A preclinical secondary pharmacology resource illuminates target-adverse drug reaction associations of marketed drugs” (Nat Commun, 2023).

The target in assay [1] is T1, Endothelin-1 receptor (Homo sapiens, UniProt P25101).
T1 sequence (P25101 whole entry): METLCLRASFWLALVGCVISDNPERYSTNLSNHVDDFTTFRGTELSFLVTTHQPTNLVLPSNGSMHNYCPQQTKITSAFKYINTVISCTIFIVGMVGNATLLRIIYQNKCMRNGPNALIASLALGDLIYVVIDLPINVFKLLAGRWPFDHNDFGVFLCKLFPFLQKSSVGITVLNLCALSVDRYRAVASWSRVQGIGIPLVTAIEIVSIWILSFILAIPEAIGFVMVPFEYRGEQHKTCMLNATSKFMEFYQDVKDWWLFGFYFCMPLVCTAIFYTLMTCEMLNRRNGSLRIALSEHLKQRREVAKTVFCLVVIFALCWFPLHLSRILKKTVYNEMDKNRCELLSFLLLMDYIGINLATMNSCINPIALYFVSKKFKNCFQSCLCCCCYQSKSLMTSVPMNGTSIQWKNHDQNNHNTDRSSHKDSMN

Assay [2] has as its target T2, 5-hydroxytryptamine receptor 2B (Homo sapiens, UniProt P41595). The class given is functional, cell-based.
The target of assay [3] is 5-hydroxytryptamine receptor 2A (Homo sapiens, UniProt P28223). The class given is functional, cell-based.
For assay [4], the target named is Muscarinic acetylcholine receptor M3 (Homo sapiens, UniProt P20309).
Assay [5] concerns the target T3, B2 bradykinin receptor (Homo sapiens, UniProt P30411).
T3 sequence (P30411 whole entry): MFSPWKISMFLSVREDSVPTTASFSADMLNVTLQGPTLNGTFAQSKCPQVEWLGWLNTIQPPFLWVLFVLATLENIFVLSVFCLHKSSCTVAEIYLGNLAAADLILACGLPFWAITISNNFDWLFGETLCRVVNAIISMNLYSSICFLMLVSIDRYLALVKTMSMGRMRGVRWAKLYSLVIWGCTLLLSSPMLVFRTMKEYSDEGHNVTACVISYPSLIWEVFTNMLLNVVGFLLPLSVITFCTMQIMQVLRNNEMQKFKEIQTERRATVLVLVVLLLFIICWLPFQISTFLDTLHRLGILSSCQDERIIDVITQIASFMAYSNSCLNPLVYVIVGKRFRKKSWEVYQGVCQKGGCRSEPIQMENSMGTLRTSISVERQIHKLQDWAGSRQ

Assay [6] deals with T4, Muscarinic acetylcholine receptor M1 (Homo sapiens, UniProt P11229).
T4 sequence (P11229 whole entry): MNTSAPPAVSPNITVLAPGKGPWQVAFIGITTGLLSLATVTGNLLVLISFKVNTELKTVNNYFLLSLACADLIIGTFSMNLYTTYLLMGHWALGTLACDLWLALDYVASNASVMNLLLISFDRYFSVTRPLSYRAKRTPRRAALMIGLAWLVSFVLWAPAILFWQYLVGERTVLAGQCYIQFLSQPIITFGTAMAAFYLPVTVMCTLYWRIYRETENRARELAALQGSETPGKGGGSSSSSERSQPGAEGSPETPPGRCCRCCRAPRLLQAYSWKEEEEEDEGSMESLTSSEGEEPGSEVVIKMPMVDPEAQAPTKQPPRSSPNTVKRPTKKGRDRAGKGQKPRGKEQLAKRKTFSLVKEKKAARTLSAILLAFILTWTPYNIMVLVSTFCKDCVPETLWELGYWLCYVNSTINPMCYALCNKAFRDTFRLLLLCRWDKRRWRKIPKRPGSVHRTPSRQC
The class given is functional.

The target of assay [7] is T5, Muscarinic acetylcholine receptor M2 (Homo sapiens, UniProt P08172).
T5 sequence (P08172 whole entry): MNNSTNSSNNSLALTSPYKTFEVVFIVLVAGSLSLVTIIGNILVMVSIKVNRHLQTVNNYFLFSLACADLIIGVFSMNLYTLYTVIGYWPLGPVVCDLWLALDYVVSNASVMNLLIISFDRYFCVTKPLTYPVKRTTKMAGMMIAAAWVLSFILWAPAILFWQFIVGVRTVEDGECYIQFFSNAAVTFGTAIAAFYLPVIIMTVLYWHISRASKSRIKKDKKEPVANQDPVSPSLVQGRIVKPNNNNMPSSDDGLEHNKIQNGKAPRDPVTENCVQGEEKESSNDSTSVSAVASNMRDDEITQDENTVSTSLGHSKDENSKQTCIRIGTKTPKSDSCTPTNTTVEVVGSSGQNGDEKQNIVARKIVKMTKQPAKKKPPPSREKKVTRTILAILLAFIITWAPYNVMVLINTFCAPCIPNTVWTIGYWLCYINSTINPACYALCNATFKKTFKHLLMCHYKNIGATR
The class given is functional, cell-based.

The target of assay [8] is cGMP-inhibited 3',5'-cyclic phosphodiesterase 3A (Homo sapiens, UniProt Q14432). The class given is functional.
Assay [9] has as its target Growth hormone secretagogue receptor type 1 (Homo sapiens, UniProt Q92847).
Assay [10] deals with T2, 5-hydroxytryptamine receptor 2B. The format is functional, cell-based. This is another data set of the same source.
The target of assay [11] is Neuronal acetylcholine receptor subunit alpha-4 (Homo sapiens, UniProt P43681).
Assay [12] has as its target T6, Adenosine receptor A3 (Homo sapiens, UniProt P0DMS8).
T6 sequence (P0DMS8 whole entry): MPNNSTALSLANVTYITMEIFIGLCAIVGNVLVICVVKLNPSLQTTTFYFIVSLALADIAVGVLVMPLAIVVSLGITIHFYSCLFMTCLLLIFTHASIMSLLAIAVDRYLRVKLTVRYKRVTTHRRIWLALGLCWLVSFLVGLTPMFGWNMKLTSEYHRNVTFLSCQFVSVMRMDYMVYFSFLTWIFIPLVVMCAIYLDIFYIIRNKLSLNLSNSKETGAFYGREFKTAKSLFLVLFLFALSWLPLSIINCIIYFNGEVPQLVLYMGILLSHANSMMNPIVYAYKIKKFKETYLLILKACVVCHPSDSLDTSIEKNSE

In assay [13] the target is Beta-2 adrenergic receptor (Homo sapiens, UniProt P07550).
Further: assay procedure not described here.

Sequence of Neuronal acetylcholine receptor subunit alpha-4 (P43681 whole entry): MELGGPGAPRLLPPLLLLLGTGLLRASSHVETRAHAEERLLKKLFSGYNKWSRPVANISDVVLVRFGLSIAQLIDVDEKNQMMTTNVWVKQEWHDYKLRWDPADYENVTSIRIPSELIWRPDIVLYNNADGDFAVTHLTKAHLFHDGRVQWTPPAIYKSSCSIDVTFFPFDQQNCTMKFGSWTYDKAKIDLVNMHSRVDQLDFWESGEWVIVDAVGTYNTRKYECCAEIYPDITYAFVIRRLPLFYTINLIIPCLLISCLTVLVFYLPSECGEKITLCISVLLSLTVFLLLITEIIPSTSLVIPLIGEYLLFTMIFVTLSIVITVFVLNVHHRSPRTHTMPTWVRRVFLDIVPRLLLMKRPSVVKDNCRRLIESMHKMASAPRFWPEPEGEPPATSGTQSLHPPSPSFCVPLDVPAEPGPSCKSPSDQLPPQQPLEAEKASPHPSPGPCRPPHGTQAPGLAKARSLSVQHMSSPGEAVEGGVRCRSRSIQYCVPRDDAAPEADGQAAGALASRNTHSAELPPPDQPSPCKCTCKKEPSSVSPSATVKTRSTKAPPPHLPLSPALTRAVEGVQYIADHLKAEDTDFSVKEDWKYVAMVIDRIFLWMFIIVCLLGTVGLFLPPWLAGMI
Sequence of 5-hydroxytryptamine receptor 2A (P28223 whole entry): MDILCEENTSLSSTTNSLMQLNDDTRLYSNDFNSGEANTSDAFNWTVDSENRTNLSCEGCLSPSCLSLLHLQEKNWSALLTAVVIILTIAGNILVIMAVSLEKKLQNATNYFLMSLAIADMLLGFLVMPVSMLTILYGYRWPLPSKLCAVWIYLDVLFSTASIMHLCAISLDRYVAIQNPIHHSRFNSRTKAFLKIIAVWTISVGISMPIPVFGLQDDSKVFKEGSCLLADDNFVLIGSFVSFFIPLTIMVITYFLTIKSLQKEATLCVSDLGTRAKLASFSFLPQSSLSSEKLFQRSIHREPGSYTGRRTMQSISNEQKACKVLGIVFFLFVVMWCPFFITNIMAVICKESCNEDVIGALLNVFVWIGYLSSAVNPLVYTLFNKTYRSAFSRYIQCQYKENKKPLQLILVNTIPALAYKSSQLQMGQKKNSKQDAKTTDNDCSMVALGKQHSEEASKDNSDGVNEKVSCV
T2 sequence (P41595 whole entry): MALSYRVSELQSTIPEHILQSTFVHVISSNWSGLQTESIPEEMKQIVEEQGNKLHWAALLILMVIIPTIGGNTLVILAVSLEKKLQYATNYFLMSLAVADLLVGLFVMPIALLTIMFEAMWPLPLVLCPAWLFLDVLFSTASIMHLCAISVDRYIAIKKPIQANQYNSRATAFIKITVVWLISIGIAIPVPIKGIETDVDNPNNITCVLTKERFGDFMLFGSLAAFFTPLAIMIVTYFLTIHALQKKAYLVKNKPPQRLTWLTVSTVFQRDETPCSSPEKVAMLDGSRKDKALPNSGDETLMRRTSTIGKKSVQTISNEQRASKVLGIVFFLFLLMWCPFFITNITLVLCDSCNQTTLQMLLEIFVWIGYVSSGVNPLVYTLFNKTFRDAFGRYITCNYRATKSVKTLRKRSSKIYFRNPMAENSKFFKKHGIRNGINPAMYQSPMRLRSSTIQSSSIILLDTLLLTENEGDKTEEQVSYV
Sequence of cGMP-inhibited 3',5'-cyclic phosphodiesterase 3A (Q14432 whole entry): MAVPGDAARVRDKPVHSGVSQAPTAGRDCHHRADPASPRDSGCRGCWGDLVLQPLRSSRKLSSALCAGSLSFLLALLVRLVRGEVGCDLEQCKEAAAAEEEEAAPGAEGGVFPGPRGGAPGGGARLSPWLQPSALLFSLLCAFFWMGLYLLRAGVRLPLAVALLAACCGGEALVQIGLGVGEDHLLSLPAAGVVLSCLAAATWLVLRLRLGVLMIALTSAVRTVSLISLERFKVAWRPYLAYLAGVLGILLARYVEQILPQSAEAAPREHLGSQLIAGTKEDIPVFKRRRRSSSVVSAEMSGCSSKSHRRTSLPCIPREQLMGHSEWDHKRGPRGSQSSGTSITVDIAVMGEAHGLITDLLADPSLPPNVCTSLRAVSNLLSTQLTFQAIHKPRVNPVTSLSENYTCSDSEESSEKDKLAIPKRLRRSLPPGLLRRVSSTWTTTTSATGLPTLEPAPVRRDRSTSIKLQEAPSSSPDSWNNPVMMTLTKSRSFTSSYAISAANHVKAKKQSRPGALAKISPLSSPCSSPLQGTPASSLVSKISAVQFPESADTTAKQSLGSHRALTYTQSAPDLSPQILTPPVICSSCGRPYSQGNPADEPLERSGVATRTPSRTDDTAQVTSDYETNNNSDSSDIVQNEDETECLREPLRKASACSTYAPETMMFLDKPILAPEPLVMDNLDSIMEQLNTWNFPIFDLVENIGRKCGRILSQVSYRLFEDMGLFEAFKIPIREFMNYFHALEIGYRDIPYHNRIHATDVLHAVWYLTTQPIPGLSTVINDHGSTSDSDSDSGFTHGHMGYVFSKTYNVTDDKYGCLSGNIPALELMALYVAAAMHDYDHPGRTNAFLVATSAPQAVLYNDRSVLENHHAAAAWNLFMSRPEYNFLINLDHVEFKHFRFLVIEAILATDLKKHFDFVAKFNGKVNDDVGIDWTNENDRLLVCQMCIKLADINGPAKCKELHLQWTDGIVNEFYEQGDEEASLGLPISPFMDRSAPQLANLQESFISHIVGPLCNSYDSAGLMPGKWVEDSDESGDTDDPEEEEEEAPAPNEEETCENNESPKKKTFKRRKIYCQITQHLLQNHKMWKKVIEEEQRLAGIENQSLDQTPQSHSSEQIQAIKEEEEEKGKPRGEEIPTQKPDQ
Sequence of Growth hormone secretagogue receptor type 1 (Q92847 whole entry): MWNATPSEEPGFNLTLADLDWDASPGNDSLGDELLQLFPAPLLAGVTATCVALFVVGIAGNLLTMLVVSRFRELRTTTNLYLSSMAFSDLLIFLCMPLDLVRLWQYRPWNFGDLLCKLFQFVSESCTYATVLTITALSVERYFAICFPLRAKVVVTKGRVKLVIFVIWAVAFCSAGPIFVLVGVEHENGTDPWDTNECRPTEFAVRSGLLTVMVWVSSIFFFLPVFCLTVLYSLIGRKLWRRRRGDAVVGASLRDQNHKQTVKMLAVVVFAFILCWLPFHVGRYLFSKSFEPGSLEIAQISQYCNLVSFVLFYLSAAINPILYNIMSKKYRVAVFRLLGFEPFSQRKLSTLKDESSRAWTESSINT
Sequence of Muscarinic acetylcholine receptor M3 (P20309 whole entry): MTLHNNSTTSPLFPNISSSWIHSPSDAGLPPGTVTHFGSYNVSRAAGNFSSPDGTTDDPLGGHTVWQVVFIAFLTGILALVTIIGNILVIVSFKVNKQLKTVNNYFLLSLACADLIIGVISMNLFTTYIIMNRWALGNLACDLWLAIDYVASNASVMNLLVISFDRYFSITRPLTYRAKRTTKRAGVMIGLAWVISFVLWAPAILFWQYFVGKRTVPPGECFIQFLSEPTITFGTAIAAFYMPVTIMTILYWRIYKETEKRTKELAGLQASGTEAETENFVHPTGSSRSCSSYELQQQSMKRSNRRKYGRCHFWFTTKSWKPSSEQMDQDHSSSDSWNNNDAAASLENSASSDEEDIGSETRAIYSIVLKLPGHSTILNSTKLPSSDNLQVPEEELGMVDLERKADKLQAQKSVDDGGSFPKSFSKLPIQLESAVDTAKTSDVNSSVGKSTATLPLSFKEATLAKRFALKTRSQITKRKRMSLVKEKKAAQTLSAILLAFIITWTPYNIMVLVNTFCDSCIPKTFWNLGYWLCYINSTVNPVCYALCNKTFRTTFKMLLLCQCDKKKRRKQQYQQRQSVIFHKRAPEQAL
Sequence of Beta-2 adrenergic receptor (P07550 whole entry): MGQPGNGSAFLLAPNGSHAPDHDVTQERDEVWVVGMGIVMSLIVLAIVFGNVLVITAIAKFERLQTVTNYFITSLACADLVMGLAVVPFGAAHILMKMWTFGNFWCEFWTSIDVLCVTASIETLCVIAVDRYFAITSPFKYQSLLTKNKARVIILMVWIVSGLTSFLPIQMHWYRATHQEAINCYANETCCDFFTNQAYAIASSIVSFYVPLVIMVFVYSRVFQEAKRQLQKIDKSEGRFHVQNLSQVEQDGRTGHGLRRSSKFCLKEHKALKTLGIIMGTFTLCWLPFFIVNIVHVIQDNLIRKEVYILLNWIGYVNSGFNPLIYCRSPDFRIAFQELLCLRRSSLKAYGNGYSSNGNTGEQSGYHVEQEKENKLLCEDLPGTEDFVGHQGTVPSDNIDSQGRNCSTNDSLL

In the case of `CC1=C(C(=O)O)N2C(=O)[C@@H](NC(=O)[C@H](N)C3=CCC=CC3)[C@H]2SC1` [CEPHRADINE], the AC50 (as a rule, the concentration at which the activity in the assay is half-maximal) was over 30 µM in assay [1]; over 30 µM in [2]; over 30 µM in assay [3]; over 30 µM in assay [4]; over 10 µM in assay [5]; over 30 µM in assay [6]. Further, the AC50 was over 30 µM in [7]; over 30 µM in [8]; over 30 µM in assay [9]; over 30 µM in assay [10]; over 30 µM in assay [11]; 27 µM in [12].
`CCCCCCOC(=O)NC(=N)c1ccc(NCc2nc3cc(C(=O)N(CCC(=O)OCC)c4ccccn4)ccc3n2C)cc1` [DABIGATRAN ETEXILATE]: the AC50 in assay [1], in assay [2], in assay [3], in [4], in [5] and in assay [6] was over 30 µM in each case. Further, the AC50 in assay [7] is over 30 µM; in [8], over 30 µM; in [9], over 30 µM; in assay [10], over 30 µM; in [11] it was over 30 µM; in [12] it was 11 µM.
For `CC(=O)Oc1cccc2c1C(=O)c1c(OC(C)=O)cc(C(=O)O)cc1C2=O` [DIACEREIN], the AC50 is over 30 µM in [1]; over 10 µM in assay [2]; over 30 µM in assay [3]; over 30 µM in [4]; 28 µM in assay [5]; 19 µM in assay [6]. Besides, the AC50 in assay [13] is over 30 µM; in [7] it was 12 µM; in assay [8], over 30 µM; in assay [9], over 30 µM; in assay [11] it was 27 µM; in [12], 17 µM.
Consider `CCN1C(=O)NC(c2ccccc2)C1=O` (configuration not stated) [ETHOTOIN], for which the AC50 in [1], in assay [2], in assay [3], in assay [4], in [5] and in assay [6] was over 30 µM in each case. The AC50 was over 30 µM in assay [7]; over 30 µM in [8]; over 30 µM in assay [9]; over 30 µM in [10]; over 30 µM in [11]; 12 µM in [12].
Regarding `CCC(=O)O[C@H](CC(=O)O)C[N+](C)(C)C` [LEVOCARNITINE PROPIONATE], the AC50 in assay [1], in assay [2], in assay [3], in assay [4], in [5] and in assay [6] was over 30 µM each time. For the same compound, the AC50 in assay [7], in assay [8], in assay [9], in assay [10], in assay [11] and in [12] was over 30 µM each time.
As to `O=C(O)c1nn(Cc2ccc(Cl)cc2Cl)c2ccccc12` [LONIDAMINE], the AC50 in assay [1], in [2], in assay [3], in [4], in assay [5] and in assay [6] was over 30 µM each time. Further, the AC50 in assay [7], in assay [8], in assay [9], in assay [10], in assay [11] and in assay [12] was over 30 µM in each case.
For the compound `COC(=O)c1ccc2c(c1)NC(=O)/C2=C(\Nc1ccc(N(C)C(=O)CN2CCN(C)CC2)cc1)c1ccccc1` [NINTEDANIB], the AC50 in assay [1] is over 30 µM; in assay [2], over 30 µM; in [3] it was over 30 µM; in assay [4] it was over 30 µM; in [5], over 10 µM; in [6], over 30 µM. In addition, the AC50 in assay [7], in assay [8], in [9], in assay [10], in assay [11] and in assay [12] was over 30 µM throughout.
Take `CN1CCCN=C1/C=C/c1cccc(O)c1` [OXANTEL]: the AC50 in assay [1], in assay [2], in assay [3], in [4], in [5] and in [6] was over 30 µM each time. Moreover, the AC50 was over 30 µM in [7]; over 30 µM in [8]; over 30 µM in assay [9]; over 30 µM in assay [10]; 7.2 µM in [11]; 22 µM in assay [12].
On to `CS(=O)(=O)NC(=O)CCC/C=C\C[C@H]1C(=O)C[C@@H](O)[C@@H]1/C=C/[C@@H](O)COc1ccccc1` [SULPROSTONE], for which the AC50 in [1], in assay [2], in assay [3], in assay [4], in [5] and in assay [6] was over 30 µM each time. The AC50 in assay [7], in [8], in assay [9], in assay [10], in assay [11] and in assay [12] was over 30 µM each time.
With `CCCCC[C@H](O)CC[C@@H]1[C@H]2Cc3cccc(OCC(=O)O)c3C[C@H]2C[C@H]1O` [TREPROSTINIL], the AC50 in assay [1], in [2], in assay [3], in assay [4], in assay [5] and in [6] was over 30 µM throughout. Besides, the AC50 in assay [7], in [8], in assay [9], in assay [10], in assay [11] and in [12] was over 30 µM throughout.
Consider `CCCCCCCC(=O)CC[C@@H]1[C@@H](C/C=C\CCCC(=O)O)[C@@H](O)C[C@H]1O` [UNOPROSTONE], for which the concentration at half-maximal activity (AC50) in assay [1], in [2], in assay [3], in assay [4], in assay [5] and in assay [6] was over 30 µM in each case. In addition, the AC50 in assay [7], in assay [8], in assay [9], in [10], in assay [11] and in [12] was over 30 µM in each case.
